We go through 2 compounds from PMC12687421, “Characterisation of an allosteric site in PLCγ enzymes and implications for development of their specific inhibitors” (Biochemical Journal, 2025).

Experiment [1] has as its target T1, PLCβ2 (Homo sapiens, UniProt Q00722).
T1 construct: made in house; host or cells: Escherichia coli T7 Express lysY/Iq
Put plainly: PLC activity assay 1 (A1), PLCβ2. In kind it is biochemical. Conditions: substrate in solution or in lipid vesicles (Figure 3C, D); except small changes at very high concentration.

The target in experiment [2] is T2, PLCγ1^wt (Homo sapiens, UniProt P19174, I813T).
T2 construct: specific activities of PLCγ1^wt and PLCγ2^wt full-length proteins; made in house; host or cells: Escherichia coli T7 Express lysY/Iq
T2 sequence (P19174 1-1291 isoform P19174-2 I813T): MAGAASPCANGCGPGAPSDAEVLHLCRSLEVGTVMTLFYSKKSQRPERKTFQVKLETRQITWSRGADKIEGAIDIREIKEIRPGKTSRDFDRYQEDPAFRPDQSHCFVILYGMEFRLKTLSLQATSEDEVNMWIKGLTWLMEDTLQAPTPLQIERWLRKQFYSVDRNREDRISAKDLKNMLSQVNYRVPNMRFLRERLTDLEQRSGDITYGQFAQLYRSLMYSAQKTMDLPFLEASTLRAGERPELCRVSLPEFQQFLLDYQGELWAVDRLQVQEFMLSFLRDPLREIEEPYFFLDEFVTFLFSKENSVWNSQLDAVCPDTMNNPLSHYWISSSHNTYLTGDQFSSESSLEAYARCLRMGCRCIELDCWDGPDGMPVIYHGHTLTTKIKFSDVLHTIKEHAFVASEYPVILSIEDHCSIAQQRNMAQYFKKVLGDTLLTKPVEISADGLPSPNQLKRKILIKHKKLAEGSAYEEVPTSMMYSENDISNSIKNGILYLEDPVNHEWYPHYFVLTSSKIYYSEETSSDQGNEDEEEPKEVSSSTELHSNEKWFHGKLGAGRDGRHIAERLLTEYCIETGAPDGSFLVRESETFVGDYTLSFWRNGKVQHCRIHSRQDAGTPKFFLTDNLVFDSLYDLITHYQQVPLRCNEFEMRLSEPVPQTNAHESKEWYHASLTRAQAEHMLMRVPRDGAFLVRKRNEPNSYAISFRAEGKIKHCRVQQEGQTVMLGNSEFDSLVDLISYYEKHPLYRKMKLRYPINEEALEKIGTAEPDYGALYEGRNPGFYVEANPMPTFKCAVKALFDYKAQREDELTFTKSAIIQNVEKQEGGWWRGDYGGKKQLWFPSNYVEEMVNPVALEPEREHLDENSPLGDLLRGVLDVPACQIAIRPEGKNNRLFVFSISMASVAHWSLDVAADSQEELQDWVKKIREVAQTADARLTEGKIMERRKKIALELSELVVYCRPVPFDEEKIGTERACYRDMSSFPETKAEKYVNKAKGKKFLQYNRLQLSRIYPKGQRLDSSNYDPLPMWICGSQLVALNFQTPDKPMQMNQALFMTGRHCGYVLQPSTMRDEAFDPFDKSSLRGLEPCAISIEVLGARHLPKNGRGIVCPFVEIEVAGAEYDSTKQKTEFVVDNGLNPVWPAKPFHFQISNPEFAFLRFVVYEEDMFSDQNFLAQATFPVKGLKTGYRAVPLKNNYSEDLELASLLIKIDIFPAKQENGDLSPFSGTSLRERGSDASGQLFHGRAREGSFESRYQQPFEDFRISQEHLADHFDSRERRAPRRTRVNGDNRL
Put plainly: Microscale thermophoresis (MST) binding. Conditions: one-site binding model. How it is done:
Proteins were diluted to 200 nM in MST buffer [50 mM Hepes.KOH, 70 mM KCl, 5% (v/v) glycerol, 0.05% (v/v) Tween-20, 2 mM DTT (pH 7.5)] and subsequently labelled by adding an equal volume of 100 nM 2nd generation RED-Tris-NTA labelling dye and incubating for 30 minutes. […] An equal volume of labelled protein was added to each ligand concentration and the mixture taken up into a standard MST capillary. Samples were measured in a Monolith NT.115 pico instrument (Nanotemper) using the Nano-RED channel. Excitation power was set to 5% and MST power set to high. All experiments were performed at 25°C. All data were analysed using the manufacturer’s MO.Control software and repeated at least three times with representative experiments shown.
On the technique in general: Microscale thermophoresis detects binding through changes in fluorescence in a small temperature gradient.

Experiment [3] deals with T2, PLCγ1^wt. The experiment is described as follows: PLC activity assay 1 (A1), XY-69 substrate in liposomes, nucleotide inhibition. It counts as biochemical. To be noted: for IC50: XY-69 in liposomes, mean and SD, nine replicates.
In experiment [4] the target is T3, PLCδ1 (Homo sapiens, UniProt P51178).
T3 construct: made in house; host or cells: Escherichia coli T7 Express lysY/Iq
T3 sequence (P51178 1-756): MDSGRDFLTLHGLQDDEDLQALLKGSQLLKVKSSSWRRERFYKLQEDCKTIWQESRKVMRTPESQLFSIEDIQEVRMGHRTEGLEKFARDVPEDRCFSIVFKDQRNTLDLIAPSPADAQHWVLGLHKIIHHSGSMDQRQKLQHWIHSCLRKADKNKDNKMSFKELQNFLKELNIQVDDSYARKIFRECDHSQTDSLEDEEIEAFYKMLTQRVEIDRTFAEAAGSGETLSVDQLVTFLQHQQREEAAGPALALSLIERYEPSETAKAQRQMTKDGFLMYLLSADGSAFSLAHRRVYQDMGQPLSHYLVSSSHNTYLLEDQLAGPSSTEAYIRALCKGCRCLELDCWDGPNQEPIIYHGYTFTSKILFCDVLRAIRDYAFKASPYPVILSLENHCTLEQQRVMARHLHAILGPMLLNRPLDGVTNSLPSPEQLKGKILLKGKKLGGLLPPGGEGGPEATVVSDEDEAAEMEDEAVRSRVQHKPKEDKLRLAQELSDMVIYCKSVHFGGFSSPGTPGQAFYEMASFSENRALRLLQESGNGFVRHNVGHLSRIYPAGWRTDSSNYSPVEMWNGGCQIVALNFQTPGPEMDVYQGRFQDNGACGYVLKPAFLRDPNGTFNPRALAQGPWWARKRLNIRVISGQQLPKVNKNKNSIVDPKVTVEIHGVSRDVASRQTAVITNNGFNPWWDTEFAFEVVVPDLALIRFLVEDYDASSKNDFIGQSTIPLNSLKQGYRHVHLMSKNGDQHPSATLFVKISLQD
The experiment is described as follows: PLC activity assay 1 (A1), PLCδ1. It counts as biochemical. To be noted: substrate in solution or in lipid vesicles (Figure 3C, D); except small changes at very high concentration.

The structures appear in SMILES notation.

T1 sequence (Q00722 whole entry, species assumed): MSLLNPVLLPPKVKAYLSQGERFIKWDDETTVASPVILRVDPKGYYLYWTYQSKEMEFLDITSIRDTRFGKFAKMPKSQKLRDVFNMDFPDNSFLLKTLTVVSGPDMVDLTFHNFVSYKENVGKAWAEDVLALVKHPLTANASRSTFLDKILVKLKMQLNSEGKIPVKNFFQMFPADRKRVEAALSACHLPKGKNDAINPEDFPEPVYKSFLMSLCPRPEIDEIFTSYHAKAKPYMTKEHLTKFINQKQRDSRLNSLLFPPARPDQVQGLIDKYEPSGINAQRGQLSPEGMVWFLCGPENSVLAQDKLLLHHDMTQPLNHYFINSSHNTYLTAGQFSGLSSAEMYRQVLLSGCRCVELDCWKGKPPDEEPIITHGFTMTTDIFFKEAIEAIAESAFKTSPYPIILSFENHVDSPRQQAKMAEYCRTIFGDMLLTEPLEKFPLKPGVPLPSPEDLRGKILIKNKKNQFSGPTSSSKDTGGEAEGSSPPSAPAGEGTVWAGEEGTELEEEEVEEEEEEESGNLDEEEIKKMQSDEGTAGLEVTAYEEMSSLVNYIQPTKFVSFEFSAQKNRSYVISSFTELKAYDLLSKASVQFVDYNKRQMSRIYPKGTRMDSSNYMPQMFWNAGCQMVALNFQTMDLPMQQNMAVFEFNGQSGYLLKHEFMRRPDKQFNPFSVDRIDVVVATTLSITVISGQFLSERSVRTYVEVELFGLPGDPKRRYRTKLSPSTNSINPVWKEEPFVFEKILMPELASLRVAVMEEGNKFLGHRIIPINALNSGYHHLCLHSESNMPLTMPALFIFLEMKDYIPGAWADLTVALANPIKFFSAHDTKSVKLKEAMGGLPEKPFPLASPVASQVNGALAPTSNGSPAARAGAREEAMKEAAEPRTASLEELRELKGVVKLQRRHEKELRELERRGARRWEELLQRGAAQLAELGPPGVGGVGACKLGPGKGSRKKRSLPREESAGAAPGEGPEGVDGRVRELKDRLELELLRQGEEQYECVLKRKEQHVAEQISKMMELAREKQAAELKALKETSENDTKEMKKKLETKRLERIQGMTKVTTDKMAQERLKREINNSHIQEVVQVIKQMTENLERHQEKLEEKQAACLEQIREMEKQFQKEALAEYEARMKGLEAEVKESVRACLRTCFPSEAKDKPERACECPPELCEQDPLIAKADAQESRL

In general, Kd refers to the free concentration of one partner at which half of the binding sites on the other are occupied at equilibrium, for simple one-to-one binding. The low end stands for higher affinity, the high end for lower affinity. A word on the IC50: it is the concentration at which inhibition is half-maximal. Low values mean higher potency, high ones lower potency. With `Nc1ncnc2c1ncn2[C@@H]1O[C@H](COP(=O)(O)OP(=O)(O)OP(=O)(O)O)[C@@H](O)[C@H]1O` [ATP], the “effect on PLC activity of PLCβ2” value in experiment [1] is reported as “not affected”. In experiment [2], this compound had a dissociation constant Kd of 30 to 50 µM. This compound also registered an IC50 in experiment [3] of 1 to 20 µM. In experiment [4], the “effect on PLC activity of PLCδ1” value is “not affected”.
For `Nc1ncnc2c1ncn2[C@@H]1O[C@H](COP(=O)(O)OP(=O)(O)O)[C@@H](O)[C@H]1O` [ADP], in experiment [1], the “effect on PLC activity of PLCβ2” value is listed as “not affected”. The compound also registered a Kd in experiment [2] of 30 to 50 µM. Besides, in experiment [3], the “IC50 in liposome assay (A1) relative to solution assay (A2), fold lower” value is “eight-fold” and the IC50 lay within 1 to 20 µM. For the same compound, in experiment [3] (assays A1 and A2), the “IC50 of ADP relative to ATP (fold lower)” value was 2–4 fold. Also, the “effect on PLC activity of PLCδ1” value in experiment [4] is recorded as “not affected”.
